Holding throughout (type): cell-based
The test system of assay [1] is Jurkat T cells. Put plainly: Calcium mobilization assay in Jurkat T cells (fluo-3, flow cytometry). How it is done: Jurkat cells were treated with 2-bromopalmitate as described above. The cells (2×10^5) were collected by centrifugation and resuspended at 2×10^6 cells/ml in RPMI containing in 50 μM fluo-3 with or without 100 μM 2-bromopalmitate for 30 minutes at room temperature. Cells loaded with fluo-3 were then collected by centrigation, washed with Hank's Buffered Saline Solution (5.4 mM KCl, 0.3 mM Na2HPO4, 0.4 mM KH2PO4, 4 mM NaHCO3, 1.3 mM CaCl2, 0.5 mM MgCl2, 0.6 mM MgSO4, 137 mM NaCl, 5.6 mM glucose, 20 mM Hepes pH 7.4) and resuspended in the same buffer at 5×10^5 cells/ml at 37° C. To initiate calcium flux, the cells were activated with OKT3 antibody as described above, and analyzed for free calcium ion by measurement of fluo-3 fluoresence emission by flow cytometry.
Jurkat cells were incubated with or without 2-bromopalmitate, washed and stained with the fluorescent dye fluo-3 (50 μM). Cells were activated with OKT3 antibody and analyzed by flow cytometry. […] No effect of 2-bromopalmitate on cells incubated in the absence of OKT3 was noted.

In assay [2] the target is T1, Fyn (Homo sapiens, UniProt P06241).
T1 construct: expressed in transfected cells; host or cells: COS-1
T1 sequence (P06241 whole entry, species assumed): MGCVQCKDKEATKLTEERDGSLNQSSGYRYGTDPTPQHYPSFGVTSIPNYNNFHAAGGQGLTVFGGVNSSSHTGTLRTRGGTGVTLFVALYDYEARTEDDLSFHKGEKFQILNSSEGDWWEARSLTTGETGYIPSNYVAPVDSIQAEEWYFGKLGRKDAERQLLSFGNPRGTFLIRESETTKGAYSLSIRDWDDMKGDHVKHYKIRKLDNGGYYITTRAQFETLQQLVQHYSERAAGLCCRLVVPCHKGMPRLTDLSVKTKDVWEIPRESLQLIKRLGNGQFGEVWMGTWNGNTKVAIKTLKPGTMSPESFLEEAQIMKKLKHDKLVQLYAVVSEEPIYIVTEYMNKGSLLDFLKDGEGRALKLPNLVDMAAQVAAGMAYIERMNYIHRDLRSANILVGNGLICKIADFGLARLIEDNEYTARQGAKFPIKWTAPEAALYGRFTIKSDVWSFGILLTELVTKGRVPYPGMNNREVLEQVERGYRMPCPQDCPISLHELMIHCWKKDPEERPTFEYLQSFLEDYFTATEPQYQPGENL
Put plainly: Fyn fatty acylation (IC13/IC16) in transfected Jurkat T cells. The note with it: 100 μM, 3 hours preincubation. How it is done: The syntheses of 13-[^125I]-iodotridecanoic acid (IC13)or 16-[^125I]-iodohexanoic acid (IC16) were carried out as described previously (39). Cell labeling was carried out as described (12,13) with modifications. Briefly, each 60 mm plate of Fyn transfected COS-1 cells was incubated O/N in DMEM containing 2.5% FBS, 0.5% defatted BSA (Sigma) with or without 100 μM 2-bromopalmitate or 50 μM polyunsaturated fatty acid. Prior to labeling, the cells were incubated for 1 hr with 1 ml of DMEM containing 2% dialyzed FBS, then labeled for 4 hours with 25-50 μCi IC13 or IC16 in DMEM containing 2% dialyzed FBS, 0.5% defatted BSA with or without 2-bromopalmitate or polyunsaturated fatty acid. Labeled cells were washed three times with cold STE (100 mM NaCl, 10 mM Tris pH 7.4, 1 mM EDTA) and lysed in 0.6 ml of cold RIPA buffer containing protease inhibitors (10 μg/ml each of benzamidine, AEBSF, TPCK and TLCK, 1.5 μg/ml each of Leupeptin, Pepstatin A and Aprotinin). Lysates were clarified at 100,000×g for 15 min at 4° C. in a Beckman TL-100 ultracentrifuge. […] Gels were dried between cellophane and analyzed by phosphorimaging after 12-36 hours exposure. […]
The Src family kinases Fyn and Lck play critical roles in T cell receptor (TCR) mediated signaling. […] Total protein levels were monitored by immunoprecipitation followed by immunoblotting with anti-Fyn antibody.

The subject of assay [3] is PLC-γl. Put plainly: CD3-mediated tyrosine phosphorylation of PLC-γl in Jurkat cells. The note with it: 100 μM 3 hours, OKT3. How it is done:
(§1) Jurkat T cells (2×10^6−1×10^7) were centrifuged at 1,000×g for 5 minutes, rinsed with RPMI, resuspended in RPMI supplemented with 2% dialyzed FBS, 0.5% defatted BSA, and incubated with or without 100 μM 2-bromopalmitate at 8×10^5 cells/ml for 3 hours. The cells were centrifuged, washed with RPMI and resuspended in RPMI at 1×10^7−1×10^8 cells/ml. The cells were then activated with anti-CD3 OKT3 mAb (0.3 mg/ml) for 3 min at 37° C., quickly spun down, washed once with cold RPMI and once with cold STE, and lysed in RIPA Samples were solubilized in 1× sample buffer containing 5% β-mercaptoethanol and subjected to SDS-PAGE, followed by immunoblotting with anti-phosphotyrosine antibody (PY99). For analysis of specific proteins, RIPA lysates were immunoprecipitated with the specific antibodies O/N, and immunoblotted for phosphotyrosine. Alternatively, proteins were immunoprecipitated with agarose-conjugated anti phosphotyrosine antibody and blotted for the specific proteins.
(§2) In order to identify the individual proteins whose tyrosine phosphorylation is affected by 2-bromopalmitate, lysates were immunoprecipitated with a panel of specific antibodies, and immunoblotted for phosphotyrosine. Alternatively, lysates were immunoprecipitated with an antiphosphotyrosine antibody, and blotted with antibodies to specific proteins.

For assay [4], the system named is LAT. As to the kind of experiment: DRM (raft) localization in activated Jurkat cells, sucrose gradient: LAT. The note with it: 100 μM 3 hours, OKT3 activated, control 71%. How it is done:
Isolation of Triton X-100 resistant and soluble fractions was carried out as described previously (12). Isolation of detergent resistant microdomains by sucrose gradients were carried out as follows (19): Jurkat cells (5×10^7) were treated with 2-bromopalmitate, activated with OKT3 mAb as described above, and lysed in 1 ml lysis buffer (25 mM MES pH 6.5, 150 mM NaCl, 0.5% Triton X-100, 1 mM Na3VO4) supplemented with protease inhibitors for 30 minutes at 0° C. After homogenizing 10 times with a loose fit Dounce homogenizer, lysates were mixed with 1 ml 85% sucrose in MBS (25 mM MES pH 6.5, 150 mM NaCl), and overlayered with 6 ml 30% sucrose in MBS, then with 4 ml 5% sucrose in MBS. Following centrifugation for 16 hours at 145,000 g in an SW40 rotor, 1 ml fractions were collected and analyzed by PAGE and immunoblotting with anti-Fyn, anti-LAT, or anti-Lck antibodies.
The ability of 2-bromopalmitate to inhibit localization of palmitoylated proteins to detergent resistant microdomains in activated Jurkat cells was examined next. Cells were either left untreated or treated with 100 μM 2-bromopalmitate for 3 hours, washed, resuspended in serum-free media, and the TCR was activated with OKT3 mAb. Activated cells were extracted with Triton X-100 containing buffer. […] Each fraction was analyzed by immunoblotting with specific antibodies. […]

The subject of assay [5] is LAT. As to the kind of experiment: CD3-mediated tyrosine phosphorylation of LAT in Jurkat cells. The following applies: 100 μM 3 hours, OKT3. The protocol:
as §1, §2

These results are taken from patent US6890954B1, “Uses of 2-bromopalmitate in the treatment of autoimmune disease” (priority 1999, dated 2005).

Structures are written as SMILES.

As to `CCCCCCCCCCCCCCC(Br)C(=O)O` (stereo not shown) [2-bromopalmitate], in assay [1] (100 μM, OKT3 activated), the “calcium flux in response to T cell receptor activation” value is listed as “shut down almost completely”. Moreover, in assay [1] (no OKT3), the “effect on calcium in cells incubated in the absence of OKT3” value is “No effect”. Moreover, the “Fyn myristoylation inhibited relative to untreated controls” value in assay [2] (IC13) stood at 75%. The “Fyn palmitoylation inhibited relative to untreated controls” value in assay [2] (IC16) amounted to 90%. Also, the PLC-γl phosphorylation inhibited in assay [3] worked out at 70%. In addition, in assay [4], the “LAT associated with detergent resistant microdomains” value is given as 41%. In assay [5], the “CD3-mediated tyrosine phosphorylation of LAT” value is “inhibited completely”.
